One assay addresses T1, B1R receptor of the rat (Rattus norvegicus, UniProt P97583).
T1 construct: host or cells: CHO K1 cells (Chinese hamster ovary), stably transfected
T1 sequence (P97583 1-337): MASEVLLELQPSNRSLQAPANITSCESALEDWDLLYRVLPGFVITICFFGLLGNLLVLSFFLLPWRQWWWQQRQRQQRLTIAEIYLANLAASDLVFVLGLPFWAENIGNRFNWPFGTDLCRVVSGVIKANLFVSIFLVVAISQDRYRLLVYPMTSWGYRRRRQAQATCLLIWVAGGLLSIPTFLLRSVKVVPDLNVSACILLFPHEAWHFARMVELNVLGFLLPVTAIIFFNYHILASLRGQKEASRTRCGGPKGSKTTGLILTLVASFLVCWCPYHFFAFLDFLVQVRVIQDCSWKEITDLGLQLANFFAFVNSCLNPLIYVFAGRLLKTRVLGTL
In words: Functional study on the bradykinin receptor 1 (B1R), FLIPR Ca2+ assay, rB1R cells. The conditions noted are these: agonist Des-Arg9-bradykinin 100 nM, % inhibition compared with the maximum achievable inhibition; for inhibition at 10 µM: CHO-K1, test substance 10 μM, read-out: B1R Antagonism, rat [10 μM] % Inhibition. The class given is cell-based. The method, boiled down: (§1)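 Cells were dye-loaded 60 min at 37 °C, equilibrated 20 min at room temperature, then given 10 μM compound. Ten minutes later the species-matched agonist was added (0.5 nM Lys-Des-Arg9-bradykinin, human; 100 nM Des-Arg9-bradykinin, rat) and Ca2+ influx suppression expressed as % of maximum inhibition.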

The target in another assay is T2, human B1R receptor (Homo sapiens, UniProt P46663).
T2 construct: host or cells: CHO K1 cells (Chinese hamster ovary), stably transfected
T2 sequence (P46663 1-353): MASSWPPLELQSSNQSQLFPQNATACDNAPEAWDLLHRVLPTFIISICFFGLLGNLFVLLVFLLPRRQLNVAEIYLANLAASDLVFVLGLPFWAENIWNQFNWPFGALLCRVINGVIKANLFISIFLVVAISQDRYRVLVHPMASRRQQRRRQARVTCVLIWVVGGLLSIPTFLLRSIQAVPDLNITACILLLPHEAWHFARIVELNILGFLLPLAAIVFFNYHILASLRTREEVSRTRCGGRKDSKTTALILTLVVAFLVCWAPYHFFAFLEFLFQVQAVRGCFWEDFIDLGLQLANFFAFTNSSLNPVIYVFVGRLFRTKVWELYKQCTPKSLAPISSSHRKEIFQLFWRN
Kind of assay: Functional study on the bradykinin receptor 1 (B1R), FLIPR Ca2+ assay, hB1R cells. The note with it: agonist Lys-Des-Arg9-bradykinin 0.5 nM, % inhibition compared with the maximum achievable inhibition; for inhibition at 10 µM: CHO-K1, test substance 10 μM, read-out: B1R Antagonism, human [10 μM] % Inhibition. The class given is cell-based. The method, boiled down: as §1

Counter-ions that a name gives are not always drawn.

Take `COc1cc(C)c(S(=O)(=O)N2CCCCC2COCC(=O)N2CCN(c3cccc(Cl)c3)CC2)c(C)c1` (centres unmarked) [Example 511, 1-(4-(3-chlorophenyl)piperazin-1-yl)-2-((1-(4-methoxy-2,6-dimethylphenylsulfonyl)piperidin-2-yl)methoxy)ethanone]: the inhibition at 10 µM at B1R receptor of the rat was 103%; at human B1R receptor, 87%.

Regarding `CN1CCC(N2CCN(C(=O)COCC3CCCCN3S(=O)(=O)c3cccc(C(F)(F)F)c3)CC2)CC1` (centres unmarked) [Example 22, 1-[4-(1-methyl-piperidin-4-yl)-piperazin-1-yl]-2-[1-(3-trifluoromethyl-phenylsulfonyl)-piperidin-2-ylmethoxy]-ethanone], the inhibition at 10 µM on B1R receptor of the rat was found to be 21.4%; on human B1R receptor, 92.6%.

As for `COc1cc(C)c(S(=O)(=O)N2CCCCC2COCC(=O)Nc2cc(-c3ccccc3)n[nH]2)c(C)c1` (centres unmarked) [Example 545, 2-((1-(4-methoxy-2,6-dimethylphenylsulfonyl)piperidin-2-yl)methoxy)-N-(3-phenyl-1H-pyrazol-5-yl)acetamide], the inhibition at 10 µM on B1R receptor of the rat stood at 106%; on human B1R receptor it was 39.8%.

Consider `COc1cc(C)c(S(=O)(=O)N2CCCC2COCC(=O)N(Cc2ccccc2)c2cccc(C)n2)c(C)c1` (centres unmarked) [Example 464, N-benzyl-2-((1-(4-methoxy-2,6-dimethylphenylsulfonyl)pyrrolidin-2-yl)methoxy)-N-(6-methylpyridin-2-yl)acetamide], for which the figures for the inhibition at 10 µM at B1R receptor of the rat and on human B1R receptor were 102% and 56.6%, respectively.

With `O=C(COCC1CCCCN1S(=O)(=O)c1c(Cl)cccc1Cl)N1CCN(c2nc3ccccc3s2)CC1` (centres unmarked) [Example 553, 1-(4-(benzo[d]thiazol-2-yl)piperazin-1-yl)-2-((1-(2,6-dichlorophenylsulfonyl)piperidin-2-yl)methoxy)ethanone], the inhibition at 10 µM turned out to be 101% on B1R receptor of the rat and 54.1% on human B1R receptor.

Take `COc1cc(C)c(S(=O)(=O)N2CCCC2COCC(=O)N(C)[C@H]2CCN(Cc3ccccc3)C2)c(C)c1` (stereo partly drawn) [Example 303, N—((S)-1-benzylpyrrolidin-3-yl)-2-((1-(4-methoxy-2,6-dimethylphenylsulfonyl)pyrrolidin-2-yl)methoxy)-N-methylacetamide]: the results for the inhibition at 10 µM on B1R receptor of the rat and at human B1R receptor were 100% and 106%, respectively.

Take `CN1CCC(N2CCN(C(=O)COCC3CCCCN3S(=O)(=O)c3cc(Cl)c(Cl)cc3Cl)CC2)CC1` (centres unmarked) [Example 156, 1-(4-(1-methylpiperidin-4-yl)piperazin-1-yl)-2-((1-(2,4,5-trichlorophenylsulfonyl)piperidin-2-yl)methoxy)ethanone dihydrochloride]: the inhibition at 10 µM at B1R receptor of the rat was found to be 103%; at human B1R receptor, 108%.

Consider `CN(C)c1ccc(CNC(=O)COCC2CCCN2S(=O)(=O)c2c(Cl)cc(Cl)cc2Cl)cc1` (centres unmarked) [Example 575, N-(4-(dimethylamino)benzyl)-2-((1-(2,4,6-trichlorophenylsulfonyl)pyrrolidin-2-yl)methoxy)acetamide], for which the values for the inhibition at 10 µM on B1R receptor of the rat and on human B1R receptor were 96.8% and 23.4%, respectively.

As for `COc1cc(C)c(S(=O)(=O)N2CCCC2COCC(=O)N(Cc2ccccc2)c2cc(C)ccn2)c(C)c1` (centres unmarked) [Example 463, N-benzyl-2-((1-(4-methoxy-2,6-dimethylphenylsulfonyl)pyrrolidin-2-yl)methoxy)-N-(4-methylpyridin-2-yl)acetamide], the inhibition at 10 µM on B1R receptor of the rat turned out to be 101%; on human B1R receptor, 97.4%.

Turning to `COc1cc(C)c(S(=O)(=O)N2CCCCC2COCC(=O)N2CCC(c3ccncc3)C2)c(C)c1` (centres unmarked) [Example 238, 2-((1-(4-methoxy-2,6-dimethylphenylsulfonyl)piperidin-2-yl)methoxy)-1-(3-(pyridin-4-yl)pyrrolidin-1-yl)ethanone], the inhibition at 10 µM at B1R receptor of the rat stood at 99.3%; on human B1R receptor, 99.9%.

With `CN(C)Cc1ccc(CNC(=O)COCC2CCCN2S(=O)(=O)c2c(Cl)cc(Cl)cc2Cl)cc1` (centres unmarked) [Example 73, N-(4-dimethylaminomethyl-benzyl)-2-[1-(2,4,6-trichloro-phenylsulfonyl)-pyrrolidin-2-ylmethoxy]-acetamide], the inhibition at 10 µM at B1R receptor of the rat stood at 106%; at human B1R receptor, 51%.

Turning to `COc1cc(C)c(S(=O)(=O)N2CCCCC2COCC(=O)NCCCN2CCN(Cc3ccccc3)CC2)c(C)c1` (centres unmarked) [Example 411, N-(3-(4-benzylpiperazin-1-yl)propyl)-2-((1-(4-methoxy-2,6-dimethylphenylsulfonyl)piperidin-2-yl)methoxy)acetamide], the inhibition at 10 µM on B1R receptor of the rat is 100%; on human B1R receptor, 101%.

Take `COc1cc(C)c(S(=O)(=O)N2CCCCC2COCC(=O)NCc2ccc(CN3CCN(C)CC3)cc2)c(C)c1` (centres unmarked) [Example 7, 2-[1-(4-methoxy-2,6-dimethyl-phenylsulfonyl)-piperidin-2-ylmethoxy]-N-[4-(4-methyl-piperazin-1-ylmethyl)-benzyl]-acetamide]: the inhibition at 10 µM at B1R receptor of the rat was 99.3%; on human B1R receptor it was 102%.

Take `COc1ccc(N2CCN(C(=O)COCC3CCCCN3S(=O)(=O)c3ccc(Cl)c(Cl)c3)CC2)cc1` (centres unmarked) [Example 84, 2-[1-(3,4-dichloro-phenylsulfonyl)-piperidin-2-ylmethoxy]-1-[4-(4-methoxy-phenyl)-piperazin-1-yl]-ethanone]: the results for the inhibition at 10 µM on B1R receptor of the rat and on human B1R receptor were 0% and 43.7%, respectively.

In the case of `COc1cc(C)c(S(=O)(=O)N2CCCCC2COCC(=O)NCC(c2ccccc2Cl)N2CCOCC2)c(C)c1` (centres unmarked) [Example 251, N-(2-(2-chlorophenyl)-2-morpholinoethyl)-2-((1-(4-methoxy-2,6-dimethylphenylsulfonyl)piperidin-2-yl)methoxy)acetamide], the results for the inhibition at 10 µM on B1R receptor of the rat and on human B1R receptor were 98.5% and 45.8%, respectively.

`CN(C)CCCN1CCN(C(=O)COCC2CCCN2S(=O)(=O)c2ccc(Cl)c(Cl)c2)CC1` (centres unmarked) [Example 88, 2-[1-(3,4-dichloro-phenylsulfonyl)-pyrrolidin-2-ylmethoxy]-1-[4-(3-dimethylamino-propyl)-piperazin-1-yl]-ethanone]: the inhibition at 10 µM came to 7.33% at B1R receptor of the rat and 42.1% at human B1R receptor.

As for `Cc1ccc(N2CCN(C(=O)COCC3CCCCN3S(=O)(=O)c3c(Cl)cccc3Cl)CC2)cc1C` (centres unmarked) [Example 403, 2-((1-(2,6-dichlorophenylsulfonyl)piperidin-2-yl)methoxy)-1-(4-(3,4-dimethylphenyl)piperazin-1-yl)ethanone], the figures for the inhibition at 10 µM at B1R receptor of the rat and at human B1R receptor were 100% and 101%, respectively.

Turning to `COc1ccc(CN2CCN(C(=O)COCC3CCCCN3S(=O)(=O)c3c(C)cc(OC)cc3C)CC2)cc1` (centres unmarked) [Example 386, 2-((1-(4-methoxy-2,6-dimethylphenylsulfonyl)piperidin-2-yl)methoxy)-1-(4-(4-methoxybenzyl)piperazin-1-yl)ethanone], the inhibition at 10 µM at B1R receptor of the rat was determined as 97.9%; on human B1R receptor it was 101%.

`COc1cc(C)c(S(=O)(=O)N2CCCCC2COCC(=O)N2CCC(Oc3cccnc3)CC2)c(C)c1` (centres unmarked) [Example 165, 2-((1-(4-methoxy-2,6-dimethylphenylsulfonyl)piperidin-2-yl)methoxy)-1-(4-(pyridin-3-yloxy)piperidin-1-yl)ethanone]: the inhibition at 10 µM was 96.8% on B1R receptor of the rat and 97.1% on human B1R receptor.

As to `Cc1cc(C)nc(CC2CCCN2C(=O)COCC2CCCCN2S(=O)(=O)c2cccc3ccccc23)c1` (centres unmarked) [Example 240, 1-(2-((4,6-dimethylpyridin-2-yl)methyl)pyrrolidin-1-yl)-2-((1-(naphthen-1-ylsulfonyl)piperidin-2-yl)methoxy)ethanone], on B1R receptor of the rat (test substance 10 μM, rB1R CHO K1 cells), the “B1R Antagonism, rat [10 μM] % Inhibition” value was 97.3%. Besides, at human B1R receptor (test substance 10 μM, hB1R CHO K1 cells), the “B1R Antagonism, human [10 μM] % Inhibition” value was found to be 78.48%.

As for `COc1cc(C)c(S(=O)(=O)N2CCCC2COCC(=O)N2CCCN(c3ncccc3C#N)CC2)c(C)c1` (centres unmarked) [Example 531, 2-(4-(2-((1-(4-methoxy-2,6-dimethylphenylsulfonyl)pyrrolidin-2-yl)methoxy)acetyl)-1,4-diazepan-1-yl)nicotinonitrile], the inhibition at 10 µM at B1R receptor of the rat came to 96.2%; at human B1R receptor, 92.6%.

Take `CCN(CCCNC(=O)COCC1CCCCN1S(=O)(=O)c1c(C)cc(OC)cc1C)c1ccccc1` (centres unmarked) [Example 424, N-(3-(ethyl(phenyl)amino)propyl)-2-((1-(4-methoxy-2,6-dimethylphenylsulfonyl)piperidin-2-yl)methoxy)acetamide]: the figures for the inhibition at 10 µM at B1R receptor of the rat and on human B1R receptor were 97.6% and 35.1%, respectively.

For the origin of these results see patent US8435978B2, “Substituted sulfonamide compounds” (Gruenenthal GmbH, priority 2006, dated 2013).
